# Results reported in patent US11572362B2, “Pyrrolo[1,2-b]pyridazine derivatives” (Gilead Sciences, Inc., priority 2018, dated 2023).
# Assays:
# [1] = test system: TNFα; assay: IRAK4 Monocyte TNFα Cell Based Assay; settings: Monocyte; cryopreserved human monocytes, 50 pg/ml LPS, compound 1 hour pre-treatment, 4 hours stimulation, TNFα by TR-FRET
# Method: IRAK4 Monocyte TNFα Cell Based Assay Procedure:
# The cell suspension was then plated at a density of 5,000 cells/well onto black 384 well Greiner clear bottom plates. Plates were pre-spotted with test compounds and serially diluted in DMSO where 40 nL/well were delivered using the Echo 550 acoustic liquid dispenser (Labcyte®) for a final DMSO concentration of 0.1%. Plated cells were treated with compound for 1 hour at 37° C. Cells were then stimulated with 50 pg/ml of LPS (Sigma) excluding outside columns of plate used for unstimulated cell control wells. Cells were incubated for an additional 4 hours at 37° C. Cells were then spun out of the media and 5 μl of sample were taken and analyzed for total TNFα content using the TR-FRET Human TNFα detection system (CisBio). This system utilizes two labeled antibodies (cryptate and XL665) that bind to two different epitopes of the TNFα molecule and produce FRET signal proportional to the concentration of TNFα in the sample. Detection antibodies are mixed 50:50 and 5 μL were dispensed into each well. Plates were covered with clear seals and incubated at room temp overnight. The following morning plates were read using an Envision 2103 Multilabeled reader (PerkinElmer) with excitation/emission/FRET emission at 340 nm/615 nm/665 nm, respectively. Fluorescence intensities at 615 nm and 665 nm emission wavelengths were expressed as a ratio (665 nm/615 nm). Percent of control was calculated as follows: % Control=100×(RatioSample−Ratio0% Stimulation)/(Ratio100% Stimulation−Ratio0% Stimulation)
# where unstimulated cells (0% stimulation) were the negative control and stimulated cells (100% stimulation) were used as the positive control.
# [2] = molecular target: IRAK4 (Homo sapiens (Human), UniProt Q9NWZ3); assay: IRAK4 Biochemical Assay (TR-FRET/HTRF); settings: IRAK4 enzyme 0.75 nM, 500 μM ATP, 2 μM STK1 peptide, 120 min
# Sequence of IRAK4 (Q9NWZ3 whole entry): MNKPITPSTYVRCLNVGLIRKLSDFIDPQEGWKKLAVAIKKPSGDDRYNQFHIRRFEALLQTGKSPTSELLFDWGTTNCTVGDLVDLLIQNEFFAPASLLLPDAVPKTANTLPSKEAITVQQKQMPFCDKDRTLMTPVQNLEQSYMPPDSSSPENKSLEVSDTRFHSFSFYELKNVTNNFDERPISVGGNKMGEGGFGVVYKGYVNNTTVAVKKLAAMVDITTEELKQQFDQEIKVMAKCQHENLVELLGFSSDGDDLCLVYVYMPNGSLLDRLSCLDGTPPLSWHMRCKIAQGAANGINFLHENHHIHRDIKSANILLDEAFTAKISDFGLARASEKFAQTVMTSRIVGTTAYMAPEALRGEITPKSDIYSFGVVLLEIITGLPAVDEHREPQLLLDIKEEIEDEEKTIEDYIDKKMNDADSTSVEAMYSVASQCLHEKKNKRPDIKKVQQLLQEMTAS
# Method: IRAK4 Biochemical Assay Procedure:
# IRAK4 enzyme (Carna Biosciences, Chuo-ku, Kobe, Japan) activity was measured by detecting phosphorylated peptide substrate formation using an antibody against the phosphorylated peptide substrate. This is a time-resolved fluorescence resonance energy transfer (TR-FRET) immunoassay, based on the STK1 KinEASE Assay (Cisbio, Bedford, Mass.). The assay was designed as a simple two-step, endpoint assay (a 5 μl enzyme reaction followed by 5 μl stop and detect Solution) performed in ProxiPlate-384 Plus plates (Perkin Elmer, Waltham, Mass.). Staurosporine, a non-selective kinase inhibitor was used as a positive control. Compounds diluted in DMSO were spotted into 384 well plates using a Labcyte® Echo 550 Liquid Handling System prior to addition of IRAK4 enzyme and peptide substrate. Reaction solutions were delivered using a Multi-Flo (Bio-Tek Instruments). The enzyme and peptide solution was incubated with compound for 15 minutes at room temp before the reaction was initiated by the addition of ATP. The standard 5 μl reaction mixture contained 500 μM ATP, 2 μM peptide (STK1 Peptide), 0.75 nM of IRAK4 in reaction buffer (50 mM HEPES, pH 7.0, 0.02% NaN3, 0.01% BSA, 0.1 mM Orthovanadate, 5 mM MgCl2, 0.025% NP-40, 1 mM DTT). After 120 min of incubation at room temperature, 5 μl of Stop and Detect Solution (1:100 Cryptate labeled anti-phosphorylated peptide antibody solution and 125 nM Tracer in a 50 mM HEPES pH 7.0 detection buffer containing sufficient EDTA) was added. The plate was then further incubated for 60 minutes at room temperature and read on Envision 2103 Multilabeled reader (PerkinElmer) with excitation/emission/FRET emission at 340 nm/615 nm/665 nm, respectively. Fluorescence intensities at 615 nm and 665 nm emission wavelengths were expressed as a ratio (665 nm/615 nm). Percentage of inhibition was calculated as below: % Inhibition=100×(RatioSample−Ratio0% Inhibition)/(Ratio100% Inhibition−Ratio0% Inhibition)
# The 0% inhibition value comes from control wells lacking inhibitor. The 100% inhibition value comes from control wells containing a saturating amount of known inhibitor staurosporine.
EC50 [1] [nM],IC50 [2] [nM],SMILES
221,9,"CC(C)(O)[C@H](F)CNC(=O)c1cnc(-c2ccc3cc(C#N)cnn23)cc1NC1CCC(c2ccncc2)CC1 (single isomer, unassigned) [Compound 56]"
17,1,"Cc1c([C@H]2CC[C@H](Nc3cc(-c4ccc5cc(C#N)cnn45)ncc3C(=O)NC[C@@H](F)C(C)(C)O)CC2)cnn1C(F)F [Compound 11, 6-(3-cyanopyrrolo[1,2-b]pyridazin-7-yl)-4-(((1r,4R)-4-(1-(difluoromethyl)-5-methyl-1H-pyrazol-4-yl)cyclohexyl)amino)-N-((R)-2-fluoro-3-hydroxy-3-methylbutyl)nicotinamide]"
44,2,"CCn1cc([C@H]2CC[C@H](Nc3cc(-c4ccc5cc(C#N)cnn45)ncc3C(=O)NC[C@@H](F)C(C)(C)O)CC2)cn1 [Compound 12, 6-(3-cyanopyrrolo[1,2-b]pyridazin-7-yl)-4-(((1r,4R)-4-(1-ethyl-1H-pyrazol-4-yl)cyclohexyl)amino)-N-((R)-2-fluoro-3-hydroxy-3-methylbutyl)nicotinamide]"
169,2,"CC(C)(O)[C@H](F)CNC(=O)c1cnc(-c2ccc3cc(C#N)cnn23)cc1N[C@H]1CC[C@H](c2cnn(CC3CC3)c2)CC1 [Compound 13, 6-(3-cyanopyrrolo[1,2-b]pyridazin-7-yl)-4-(((1r,4R)-4-(1-(cyclopropylmethyl)-1H-pyrazol-4-yl)cyclohexyl)amino)-N-((R)-2-fluoro-3-hydroxy-3-methylbutyl)nicotinamide]"
53,1,"CC(C)(O)[C@H](F)CNC(=O)c1cnc(-c2ccc3cc(C#N)cnn23)cc1N[C@H]1CC[C@H](c2cnn(C3CC3)c2)CC1 [Compound 14, 6-(3-cyanopyrrolo[1,2-b]pyridazin-7-yl)-4-(((1r,4R)-4-(1-cyclopropyl-1H-pyrazol-4-yl)cyclohexyl)amino)-N-((R)-2-fluoro-3-hydroxy-3-methylbutyl)nicotinamide]"
–,0.822,"CC(C)(O)[C@H](F)CNC(=O)c1cnc(-c2ccc3cc(C#N)cnn23)cc1N[C@H]1CC[C@H](c2cc[nH]n2)CC1 [Compound 70, 4-(((1r,4R)-4-(1H-pyrazol-3-yl)cyclohexyl)amino)-6-(3-cyanopyrrolo[1,2-b]pyridazin-7-yl)-N-((R)-2-fluoro-3-hydroxy-3-methylbutyl)nicotinamide]"
–,3.13,"CC(C)(O)[C@H](F)CNC(=O)c1cnc(-c2ccc3cc(C#N)cnn23)cc1N[C@H]1CC[C@@H](c2cc[nH]n2)CC1 [Compound 71, 4-(((1s,4S)-4-(1H-pyrazol-3-yl)cyclohexyl)amino)-6-(3-cyanopyrrolo[1,2-b]pyridazin-7-yl)-N-((R)-2-fluoro-3-hydroxy-3-methylbutyl)nicotinamide]"
–,0.875,"CC(C)(O)[C@H](F)CNC(=O)c1cnc(-c2ccc3cc(C#N)cnn23)cc1N[C@H]1CC[C@H](c2cnn(C(F)F)n2)CC1 [Compound 75, 6-(3-cyanopyrrolo[1,2-b]pyridazin-7-yl)-4-(((1r,4R)-4-(2-(difluoromethyl)-2H-1,2,3-triazol-4-yl)cyclohexyl)amino)-N-((R)-2-fluoro-3-hydroxy-3-methylbutyl)nicotinamide]"

# The next lines start with the compound.
SMILES,EC50 [1] [nM],IC50 [2] [nM]
"CC(C)(O)[C@H](F)CNC(=O)c1cnc(-c2ccc3cc(C#N)cnn23)cc1N[C@H]1CC[C@H](c2cn[nH]c2)CC1 [Compound 1, 4-(((1r,4R)-4-(1H-pyrazol-4-yl)cyclohexyl)amino)-6-(3-cyanopyrrolo[1,2-b]pyridazin-7-yl)-N-((R)-2-fluoro-3-hydroxy-3-methylbutyl)nicotinamide]",4,< 1
"CC(C)(O)[C@H](F)CNC(=O)c1cnc(-c2ccc3cc(C#N)cnn23)cc1N[C@H]1CC[C@@H](c2cn[nH]c2)CC1 [Compound 2, 4-(((1s,4S)-4-(1H-pyrazol-4-yl)cyclohexyl)amino)-6-(3-cyanopyrrolo[1,2-b]pyridazin-7-yl)-N-((R)-2-fluoro-3-hydroxy-3-methylbutyl)nicotinamide]",66,< 1
"CC(C)(O)[C@H](F)CNC(=O)c1cnc(-c2ccc3cc(C#N)cnn23)cc1N[C@H]1CC[C@H](c2cnn(C(F)F)c2)CC1 [Compound 3, 6-(3-cyanopyrrolo[1,2-b]pyridazin-7-yl)-4-(((1r,4R)-4-(1-(difluoromethyl)-1H-pyrazol-4-yl)cyclohexyl)amino)-N-((R)-2-fluoro-3-hydroxy-3-methylbutyl)nicotinamide]",9,< 1
"CC(C)(O)[C@H](F)CNC(=O)c1cnc(-c2ccc3cc(C#N)cnn23)cc1N[C@H]1CC[C@H](c2cnn(C(F)(F)F)c2)CC1 [Compound 4, 6-(3-cyanopyrrolo[1,2-b]pyridazin-7-yl)-N-((R)-2-fluoro-3-hydroxy-3-methylbutyl)-4-(((1r,4R)-4-(1-(trifluoromethyl)-1H-pyrazol-4-yl)cyclohexyl)amino)nicotinamide]",37,3
"CC(C)(O)[C@H](F)CNC(=O)c1cnc(-c2ccc3cc(C#N)cnn23)cc1N[C@H]1CC[C@H](c2cnn(CC(F)F)c2)CC1 [Compound 5, 6-(3-cyanopyrrolo[1,2-b]pyridazin-7-yl)-4-(((1r,4R)-4-(1-(2,2-difluoroethyl)-1H-pyrazol-4-yl)cyclohexyl)amino)-N-((R)-2-fluoro-3-hydroxy-3-methylbutyl)nicotinamide]",22,< 1
"CC(C)(O)[C@H](F)CNC(=O)c1cnc(-c2ccc3cc(C#N)cnn23)cc1NC1CCC(c2cnn(CC(F)(F)F)c2)CC1 (stereo partly drawn) [Compound 6, (R)-6-(3-cyanopyrrolo[1,2-b]pyridazin-7-yl)-N-(2-fluoro-3-hydroxy-3-methylbutyl)-4-((4-(1-(2,2,2-trifluoroethyl)-1H-pyrazol-4-yl)cyclohexyl)amino)nicotinamide]",70,–
"Cn1cc([C@H]2CC[C@H](Nc3cc(-c4ccc5cc(C#N)cnn45)ncc3C(=O)NC[C@@H](F)C(C)(C)O)CC2)cn1 [Compound 7, 6-(3-cyanopyrrolo[1,2-b]pyridazin-7-yl)-N-((R)-2-fluoro-3-hydroxy-3-methylbutyl)-4-(((1r,4R)-4-(1-methyl-1H-pyrazol-4-yl)cyclohexyl)amino)nicotinamide]",18,1
"CC(C)(O)[C@H](F)CNC(=O)c1cnc(-c2ccc3cc(C#N)cnn23)cc1N[C@H]1CC[C@H](c2ccn(C(F)F)n2)CC1 [Compound 8, 6-(3-cyanopyrrolo[1,2-b]pyridazin-7-yl)-4-(((1r,4R)-4-(1-(difluoromethyl)-1H-pyrazol-3-yl)cyclohexyl)amino)-N-((R)-2-fluoro-3-hydroxy-3-methylbutyl)nicotinamide]",36,1
"Cc1nn(C(F)F)cc1C1CCC(Nc2cc(-c3ccc4cc(C#N)cnn34)ncc2C(=O)NC[C@@H](F)C(C)(C)O)CC1 (stereo partly drawn) [Compound 9, (R)-6-(3-cyanopyrrolo[1,2-b]pyridazin-7-yl)-4-((4-(1-(difluoromethyl)-3-methyl-1H-pyrazol-4-yl)cyclohexyl)amino)-N-(2-fluoro-3-hydroxy-3-methylbutyl)nicotinamide]",114,7
"Cc1c(C2CCC(Nc3cc(-c4ccc5cc(C#N)cnn45)ncc3C(=O)NC[C@@H](F)C(C)(C)O)CC2)cnn1C(F)F (stereo partly drawn) [Compound 10, (R)-6-(3-cyanopyrrolo[1,2-b]pyridazin-7-yl)-4-((4-(1-(difluoromethyl)-5-methyl-1H-pyrazol-4-yl)cyclohexyl)amino)-N-(2-fluoro-3-hydroxy-3-methylbutyl)nicotinamide]",55,8
